Results published in patent US12391683B2, “Therapeutic compounds and methods” (Actio Biosciences, Inc., priority 2022, dated 2025).

Tests used:
Human TRPV4 = Human TRPV4 (Homo sapiens, UniProt Q9HBA0); test: TRP Family FLIPR Assay, TRPV4; type: cell-based; design: expressed in transfected cells; host or cells: CHO; settings: CHO cells
Experimental: (§1) The compound of Example 5 was tested for selectivity against a panel of Human TRP family ion channels in a TRP Family FLIPR Assay as described below. • 1. TRPC3 channels (human TRPC3 variant 1 gene, expressed in HEK293 cells). • 2. TRPC4 channels (human TRPC4 gene, expressed in HEK293 cells). • 3. TRPC5 channels (human TRPC5 gene, expressed in HEK293 cells). • 4. TRPC6 channels (human TRPC6 gene, expressed in HEK293 cells). • 5. TRPM2 channels (human TRPM2 gene, transiently expressed in HEK293 cells). • 6. TRPM3 channels (human TRPM3 gene, transiently expressed in HEK293 cells). • 7. TRPM4 channels (human TRPM4 gene, expressed in CHO cells). • 8. […]
(§2) Data acquisition was performed via the FLIPR Control software supplied with the FLIPR System (MDS-AT) and data was analyzed using Microsoft Excel (Microsoft Corp., Redmond, WA) or GraphPad Prism. […]
(§3) [formula] where Base is the response at low concentrations of test article, Max is the maximum response at high concentrations, xhalf the EC50, or IC50, the concentration of test article producing either half-maximal activation or inhibition, and rate is the Hill coefficient. […] No assumptions about the fit parameters was made; the fit parameters were determined by the algorithm.
(§4) The effect of each test article was evaluated at eight (8) concentrations: 0.003, 0.01, 0.03, 0.1, 0.3, 1, 3 and 10 μM, n≤4 wells/concentration). […]

TRPV5 channels = target: T1, TRPV5 channels (Homo sapiens, UniProt Q9NQA5); test: TRP Family FLIPR Assay, TRPV5; type: cell-based; settings: antagonist mode; activated with 60 μM cadmium ion; HEK293 cells (transient); 0.003-10 μM; read-out: IC50 hTRPV5
T1 construct: expressed in transfected cells; host or cells: HEK293 (transient)
T1 sequence (Q9NQA5 whole entry): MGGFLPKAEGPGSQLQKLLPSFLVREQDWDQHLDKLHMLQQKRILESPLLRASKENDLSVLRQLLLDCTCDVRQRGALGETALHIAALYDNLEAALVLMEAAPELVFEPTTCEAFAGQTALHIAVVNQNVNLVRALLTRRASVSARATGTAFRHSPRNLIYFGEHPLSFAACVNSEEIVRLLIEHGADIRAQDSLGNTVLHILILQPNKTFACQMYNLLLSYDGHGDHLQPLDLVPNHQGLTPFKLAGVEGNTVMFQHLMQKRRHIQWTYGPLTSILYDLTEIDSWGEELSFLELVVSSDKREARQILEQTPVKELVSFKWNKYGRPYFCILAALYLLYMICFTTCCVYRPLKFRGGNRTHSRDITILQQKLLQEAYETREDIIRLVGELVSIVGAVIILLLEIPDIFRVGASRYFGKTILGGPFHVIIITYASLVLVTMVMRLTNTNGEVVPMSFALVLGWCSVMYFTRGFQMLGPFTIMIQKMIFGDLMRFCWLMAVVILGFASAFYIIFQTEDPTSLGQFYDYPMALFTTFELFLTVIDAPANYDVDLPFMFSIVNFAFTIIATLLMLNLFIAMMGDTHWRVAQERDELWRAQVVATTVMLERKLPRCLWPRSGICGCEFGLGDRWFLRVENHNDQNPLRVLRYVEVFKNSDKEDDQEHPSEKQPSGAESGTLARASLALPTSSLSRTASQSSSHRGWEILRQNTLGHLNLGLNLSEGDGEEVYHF
Experimental: as §1, §2, §3, §4

TRPV1 channels = target: T2, TRPV1 channels (Homo sapiens, UniProt Q8NER1); test: TRP Family FLIPR Assay, TRPV1; type: cell-based; settings: HEK293 cells
T2 construct: expressed in transfected cells; host or cells: HEK293
T2 sequence (Q8NER1 whole entry): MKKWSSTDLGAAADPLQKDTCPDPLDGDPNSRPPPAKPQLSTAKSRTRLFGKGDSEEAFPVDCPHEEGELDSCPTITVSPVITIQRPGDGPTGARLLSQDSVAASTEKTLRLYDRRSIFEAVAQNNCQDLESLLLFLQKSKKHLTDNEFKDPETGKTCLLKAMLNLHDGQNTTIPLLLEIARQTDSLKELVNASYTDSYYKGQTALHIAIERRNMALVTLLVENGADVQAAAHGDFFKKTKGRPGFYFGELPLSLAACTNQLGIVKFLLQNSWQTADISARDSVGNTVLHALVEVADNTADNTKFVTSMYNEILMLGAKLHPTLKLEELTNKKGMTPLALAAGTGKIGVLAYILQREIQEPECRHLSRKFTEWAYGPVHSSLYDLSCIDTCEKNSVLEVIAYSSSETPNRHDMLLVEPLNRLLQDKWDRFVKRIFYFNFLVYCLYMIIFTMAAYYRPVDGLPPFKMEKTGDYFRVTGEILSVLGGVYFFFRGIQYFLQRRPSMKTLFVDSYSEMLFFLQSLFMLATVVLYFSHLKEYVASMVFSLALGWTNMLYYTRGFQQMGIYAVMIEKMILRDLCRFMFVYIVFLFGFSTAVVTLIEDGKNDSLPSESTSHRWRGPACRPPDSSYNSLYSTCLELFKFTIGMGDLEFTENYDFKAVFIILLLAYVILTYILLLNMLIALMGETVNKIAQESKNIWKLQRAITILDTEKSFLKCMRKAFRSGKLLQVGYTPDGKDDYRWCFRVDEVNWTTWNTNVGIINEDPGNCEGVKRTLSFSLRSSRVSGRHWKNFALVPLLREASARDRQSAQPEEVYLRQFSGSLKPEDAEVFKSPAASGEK
Experimental: as §1, §2, §3, §4

Hepatocytes = Hepatocytes predicted clearance, mouse

Chain of Human TRPV4 (Q9HBA0 whole entry): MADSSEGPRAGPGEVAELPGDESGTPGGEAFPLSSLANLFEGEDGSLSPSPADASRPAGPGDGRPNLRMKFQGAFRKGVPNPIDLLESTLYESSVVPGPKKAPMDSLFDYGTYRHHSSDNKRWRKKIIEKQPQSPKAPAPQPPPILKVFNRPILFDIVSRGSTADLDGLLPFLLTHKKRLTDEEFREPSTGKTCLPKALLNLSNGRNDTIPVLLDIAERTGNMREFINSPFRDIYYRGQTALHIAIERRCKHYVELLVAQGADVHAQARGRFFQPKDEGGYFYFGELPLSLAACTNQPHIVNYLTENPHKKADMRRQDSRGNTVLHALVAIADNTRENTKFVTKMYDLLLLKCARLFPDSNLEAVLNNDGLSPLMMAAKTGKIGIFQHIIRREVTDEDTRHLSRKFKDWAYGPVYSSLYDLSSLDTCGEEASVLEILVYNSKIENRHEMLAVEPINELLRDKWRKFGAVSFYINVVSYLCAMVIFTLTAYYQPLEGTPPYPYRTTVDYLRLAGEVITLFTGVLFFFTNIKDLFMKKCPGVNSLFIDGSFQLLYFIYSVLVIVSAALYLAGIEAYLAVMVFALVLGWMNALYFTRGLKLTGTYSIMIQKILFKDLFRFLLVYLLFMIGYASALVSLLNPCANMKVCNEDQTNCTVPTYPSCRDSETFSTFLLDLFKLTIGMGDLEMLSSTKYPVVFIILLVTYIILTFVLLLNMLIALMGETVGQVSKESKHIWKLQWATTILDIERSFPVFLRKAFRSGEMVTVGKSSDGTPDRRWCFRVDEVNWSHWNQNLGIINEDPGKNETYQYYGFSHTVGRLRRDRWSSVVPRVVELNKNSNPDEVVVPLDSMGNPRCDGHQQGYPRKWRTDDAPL

Q: Which results are given for `CC(C)(O)c1cnc(N2C[C@@]3(CC[C@@H](F)[C@](C)(Cn4cnc5ccc(C#N)cc54)C3)OC2=O)cn1` (single isomer, unassigned) [Example 5]?
A: EC50 (Human TRPV4; agonist mode, vs EMAX of GSK1016790A 3 μM, read-out: EC50 hTRPV4): > 10 µM; IC50 (Human TRPV4; antagonist mode, activated with GSK1016790A 0.3 μM, 0.003-10 μM, read-out: IC50 hTRPV4): 0.014 µM; IC50 (TRPV5 channels): > 10 µM; EC50 (TRPV1 channels; agonist mode, vs EMAX of capsaicin 1 μM, read-out: EC50 hTRPV1): > 10 µM; IC50 (TRPV1 channels; antagonist mode, activated with capsaicin 0.1 μM, 0.003-10 μM, read-out: IC50 hTRPV1): > 10 µM; Hepatocytes predicted clearance in mouse (Hepatocytes): 12.8 mL/min/kg
